Results on 21 molecules are retold here after patent US7303889B2, “Ligand for G-protein coupled receptor GPR43 and uses thereof” (Euroscreen S.A., priority 2002, dated 2007).

The target in assay [1] is T1, human GPR43 (Homo sapiens, UniProt O15552).
T1 sequence (O15552 1-330): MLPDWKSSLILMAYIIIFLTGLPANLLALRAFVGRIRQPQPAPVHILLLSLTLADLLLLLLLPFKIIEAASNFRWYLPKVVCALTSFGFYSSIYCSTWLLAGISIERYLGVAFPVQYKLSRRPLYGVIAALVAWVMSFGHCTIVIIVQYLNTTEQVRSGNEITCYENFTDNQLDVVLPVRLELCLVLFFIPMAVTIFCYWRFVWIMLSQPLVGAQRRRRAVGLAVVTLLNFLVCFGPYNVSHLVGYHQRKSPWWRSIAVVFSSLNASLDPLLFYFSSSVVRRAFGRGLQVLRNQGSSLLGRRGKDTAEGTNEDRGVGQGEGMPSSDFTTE
Put plainly: Structure-activity relationships of SCFAs and related compounds on human GPR43 (FIG. 12). Set-up: expressed in transfected cells. Particulars: compared with corresponding non-substituted active compounds.

Assay [2] deals with T1, human GPR43. Briefly: Accumulation of GTPγ[35S] binding on membranes from CHO-K1 cells expressing human GPR43. Type of assay: biochemical. Further details: expressed in transfected cells. Particulars: for order of agonist potency / activity on GTPγ[35S] binding: single concentration of each compound, FIG. 8. As to the method:
For GPCRs such as GPR43, a measure of receptor activity is the binding of GTP by cell membranes containing receptors. In the method described by Traynor and Nahorski, 1995, Mol. Pharmacol. 47: 848-854, incorporated herein by reference, one essentially measures G-protein coupling to membranes by detecting the binding of labelled GTP. For GTP binding assays, membranes isolated from cells expressing the receptor are incubated in a buffer containing 20 mM HEPES, pH 7.4, 100 mM NaCl, and 10 mM MgCl2, 80 pM ^35S-GTPγS and 3 μM GDP. The assay mixture is incubated for 60 minutes at 30° C., after which unbound labelled GTP is removed by filtration onto GF/B filters. Bound, labelled GTP is measured by liquid scintillation counting. In order to assay for modulation of propionate-induced GPR43 activity, membranes prepared from cells expressing a GPR43 polypeptide are mixed with propionate, and the GTP binding assay is performed in the presence and absence of a candidate modulator of GPR43 activity. […] In this case, propionate-stimulated GTP binding is used as a standard. […] GTPase activity is measured by incubating the membranes containing a GPR43 polypeptide with γ^32P-GTP. Active GTPase will release the label as inorganic phosphate, which is detected by separation of free inorganic phosphate in a 5% suspension of activated charcoal in 20 mM H3PO4, followed by scintillation counting. Controls include assays using membranes isolated from cells not expressing GPR43 (mock-transfected), in order to exclude possible non-specific effects of the candidate compound.
The activity of acetate was examined in a membrane-based functional test.
The activity of other SCFA and related compounds (alcohols, aldehydes, cetone, di-acids . . . ) was evaluated using a single concentration of each in the membrane-cell based assay.
(In general: GTPγS is a poorly hydrolysed GTP analogue; its binding reports G protein activation.)

For assay [3], the system named is peripheral blood neutrophils. Put plainly: Chemotactic response of neutrophilic granulocytes (48-well chamber). Type of assay: cell-based, human. Particulars: for shape of chemotactic dose-response: FIG. 17. On the procedure: Peripheral blood mononuclear cells were purified from buffy coats of healthy volunteers as previously described (Struyf S, De Meester I, Scharpe S, Lenaerts J P, Menten P, Wang J M, Proost P, Van Damme J., Eur J Immunol Apr. 28, 1998; 28 (4):1262-71). For intracellular calcium measurements, the cells were loaded for 30 min at room temperature with Fura-2AM (Molecular Probes). Calcium transients were monitored by a LS50B spectrofluorimeter (Perkin Elmer) as described (Grynkiewicz G, Poenie M, Tsien R Y., J Biol Chem Mar. 25, 1985;260(6):3440-50) at a final cell concentration of 10^6 cells/ml in buffer containing 125 μM probenecid. Chemotaxis was assessed in 48-well chambers using polycarbonate filter membranes with 3 μm (mesh size) (Neuroprobes, Inc.). The results are represented as chemotactic index (FIG. 17).
Freshly isolated peripheral blood neutrophils from healthy donors were tested for their chemotactic response to sodium acetate and propionate.

The target in assay [4] is T1, human GPR43. Put plainly: Inhibition of forskolin-stimulated adenylate cyclase activity in CHO-K1 cells stably expressing human GPR43. The format is cell-based. Further details: expressed in transfected cells. As to the method: (§1) Additional related compounds were tested using the same cells.
SCFA, ranging from 1 carbon to 4 carbon, were tested on CHO-K1 cells stably expressing the human GPR43 for their ability to inhibit the activity of adenylate cyclase stimulated with forskolin.

In assay [5] the test system is human polymorphonuclear (PMN) leukocytes. Particulars: Naccache et al, Fonteriz et al, Nakao et al; cited from earlier work.
For assay [6], the system named is other GPCRs, such as motilin or histamine H1 receptor. Particulars: Gqi only or cDNAs for other GPCRs; data not shown.
Assay [7] relates to human polymorphonuclear (PMN) leukocytes. Briefly: Mobilization of intracellular calcium in human neutrophils (Fura-2). The format is cell-based. Particulars: for EC50: FIG. 15 and 16, read-out: EC50 for increase of intracellular calcium. As to the method: The following experiments were conducted to test whether the human polymorphonuclear (PMN) leukocytes could be activated with acetate and propionate, since the receptor is strongly expressed in peripheral blood cells containing mainly PMNs. Activation was determined by the quantification of the intracellular calcium mobilized from internal pool after activation by acetate and propionate of the cell membrane receptor. PMN were purified from the venous blood of healthy volunteers. Cells were isolated according to established methods. For intracellular calcium measurements, the cells were loaded for 30 min at room temperature with Fura-2AM (Molecular Probes). […] Briefly, neutrophils suspensions (1×10^7 cells/ml) were incubated with 2 μM Fura-2/AM for 30 minutes at 37° C. The cells were then washed free of the extracellular probe, resuspended at 5×10^6 cells/ml and allowed to reequilibrate for 10 minutes at 37° C. Cells were then transferred to the thermostatted cuvette compartment (37° C.) of the fluorometer and the fluorescence monitored (excitation and emission […], 340 and 510 nm respectively).

In assay [8] the target is T1, human GPR43. Briefly: Production of inositol phosphates in CHO-K1 cells stably expressing human GPR43. Type of assay: cell-based. Further details: expressed in transfected cells. Particulars: PTX-pretreatment prior to stimulation; FIG. 10.
The target in assay [9] is T1, human GPR43. Particulars: library at 1-100 μM; confirmed by a dose response curve. As to the method: as §1
Assay [10] relates to non related human G-protein coupled receptors. Put plainly: GTPγ[35S] binding on ten membrane preparations of CHO-K1 cells expressing non related human GPCRs. Type of assay: biochemical.
Setting [11] is: CHO-K1 cells stably expressing human GPR43, FIG. 4.

Where two headings read alike, the source gives them in different places.

Take `NCC(=O)O` [glycine]: the “activity on human GPR43” value in assay [1] was “decreased activity without abolishing it”.

Take `CC(C)C(=O)O` [isobutyrate]: in assay [2], the “order of agonist potency” value is “acetate=propionate>n-butyrate=isobutyrate=n-valerate=caproate>>formate>>pyruvate=acetoacetate”.

As for f-met-leu-phe [fMLP], the “maximal chemotactic index relative to SCFA” value in assay [3] (on average, data not shown) was “at least 3 fold”.

Take `O=CO` [formate]: in assay [4], the “decrease of forskolin-stimulated adenylate cyclase activity” value (“decrease” for short) is 75% and the “rank order of potency to inhibit forskolin-stimulated adenylate cyclase” value is reported as “C2 (acetate)≧C3 (propionate)>C4 (butyrate)>>C1 (formate)”. The “activation of the human receptor (maximal response compared to acetate and propionate)” value in assay [2] (data not shown) is recorded as “partly activate”. The “order of agonist potency” value in assay [2] was “acetate=propionate>n-butyrate=isobutyrate=n-valerate=caproate>>formate>>pyruvate=acetoacetate”.

As for `N[C@@H](CCC(=O)O)C(=O)O` [L-glutamate], the “activity on human GPR43” value in [1] is recorded as “abolished the signal”. Further, the “activity on GTPγ[35S] binding” value in assay [2] is listed as “Inactive”.

As to `CCCCCC(=O)[O-].CCCCCC(=O)[O-].[Ca+2]` [caproate], the “order of agonist potency” value in [2] is on record as “acetate=propionate>n-butyrate=isobutyrate=n-valerate=caproate>>formate>>pyruvate=acetoacetate”.

`CC(=O)O` [acetate]: the “EC50 for cytoplasmic calcium mobilization in PMN” value in assay [5] is on record as “millimolar”. Besides, the “activation of control cells (inositol phosphates)” value in [6] is recorded as “not activated”. Moreover, the “shape of chemotactic dose-response” value in assay [3] is “classical bell-shaped dose-response curve”. Also, in [7], the “effect of increasing concentration on intracellular calcium” value was “concentration-dependent increase of intracellular calcium” and the EC50 came out at 537 µM. Also, in [8], the “PTX sensitivity of the accumulation of total inositol phosphates” value is reported as “non PTX sensitive”. In assay [4], the “decrease” value is recorded as 75% and the “rank order of potency to inhibit forskolin-stimulated adenylate cyclase” value is reported as “C2 (acetate)≧C3 (propionate)>C4 (butyrate)>>C1 (formate)”. Also, in assay [4] (FIG. 5), the “observed effect on adenylate cyclase after overnight preincubation with Pertussis Toxin (PTX)” value is given as “totally abolished”. Moreover, in assay [2] (assay buffer containing 120 mM sodium or potassium, FIG. 7), the “activation of GTPγ[35S] binding, sodium versus ammonium salt” value is listed as “equipotent”. Moreover, the “potency on accumulation of GTPγ[35S] binding” value in assay [2] (compared with the cell-based cAMP assay, FIG. 6) is reported as “comparable to that observed in the cell-based functional assay monitoring cAMP levels”. In addition, in assay [2], the “order of agonist potency” value is on record as “acetate=propionate>n-butyrate=isobutyrate=n-valerate=caproate>>formate>>pyruvate=acetoacetate”. Moreover, the “result of ligand screening” value in assay [9] is “specific activity”. Moreover, the “stimulation of GTPγ[35S] binding in membranes with non related receptors” value in [10] is given as “not able to stimulate any binding”.

On to `NCCCC(=O)O` [GABA], for which the “activity on GTPγ[35S] binding” value in assay [2] was “Inactive”.

`CC(=O)CC(=O)O` [acetoacetate]: in [1], the “activity on human GPR43” value is listed as “decreased but consistent activity”. In addition, the “order of agonist potency” value in assay [2] is listed as “acetate=propionate>n-butyrate=isobutyrate=n-valerate=caproate>>formate>>pyruvate=acetoacetate”.

For `CCC(=O)O` [propionate], the “EC50 for cytoplasmic calcium mobilization in PMN” value in assay [5] was “millimolar”. The “shape of chemotactic dose-response” value in assay [3] is given as “classical bell-shaped dose-response curve”. In assay [7], the “effect of increasing concentration on intracellular calcium” value is recorded as “concentration-dependent increase of intracellular calcium”. For the same molecule, in [7] (Leukocyte), the EC50 worked out at 540 µM. In addition, the “PTX sensitivity of the accumulation of total inositol phosphates” value in [8] is “non PTX sensitive”. Further, the “decrease” value in [4] (setting [11]) is recorded as 75%. The “rank order of potency to inhibit forskolin-stimulated adenylate cyclase” value in [4] (SCFA from 1 carbon to 4 carbon, FIG. 4) is given as “C2 (acetate)≧C3 (propionate)>C4 (butyrate)>>C1 (formate)”. Besides, the “order of agonist potency” value in assay [2] is “acetate=propionate>n-butyrate=isobutyrate=n-valerate=caproate>>formate>>pyruvate=acetoacetate”. In assay [10] (adenosine A1, adrenergic 2C, CRF 1, CCR3, LTB4, M4, neuropeptide FF 2S, opioid 3, 5-HT1A, sst5 receptors), the “stimulation of GTPγ[35S] binding in membranes with non related receptors” value is listed as “not able to stimulate any binding”.

As to `CCCC(=O)O` [butyrate], the “decrease” value in assay [4] (setting [11]) was 75%.

With `O=C(O)CC(O)(CC(=O)O)C(=O)O` [citrate], the “activity on human GPR43” value in assay [1] is on record as “abolished the signal”. Also, in assay [2], the “activity on GTPγ[35S] binding” value is recorded as “Inactive”.

Consider `CC=O` [acetaldehyde], for which the “activity on GTPγ[35S] binding” value in [2] is listed as “Inactive”.

Regarding `CC(O)CC(=O)O` (racemic) [DL-β-hydroxybutyrate], in [1], the “activity on human GPR43” value was “is not active”. In addition, the “activity on GTPγ[35S] binding” value in assay [2] is “Inactive”.

On to `CCCCC(=O)O` [n-valerate], for which the “order of agonist potency” value in [2] is on record as “acetate=propionate>n-butyrate=isobutyrate=n-valerate=caproate>>formate>>pyruvate=acetoacetate”.

Take `N[C@@H](CO)C(=O)O` [serine]: in [1], the “activity on human GPR43” value is reported as “abolished the activity”.

With `O=C(O)C(=O)O` [oxalate], the “activity on human GPR43” value in assay [1] was “abolished the signal”. Besides, the “activity on GTPγ[35S] binding” value in assay [2] is “Inactive”.

As to `O=C(O)CC(=O)O` [malonate], the “activity on human GPR43” value in [1] is “abolished the signal”. Further, the “activity on GTPγ[35S] binding” value in assay [2] was “Inactive”.

Turning to `O=C(O)CCC(=O)O` [succinate], the “activity on human GPR43” value in assay [1] is recorded as “abolished the signal”. The “activity on GTPγ[35S] binding” value in assay [2] is “Inactive”.

As to `CCO` [ethanol], in assay [2], the “activity on GTPγ[35S] binding” value was “Inactive”.

As for `CC(C)=O` [acetone], the “activity on GTPγ[35S] binding” value in assay [2] is listed as “Inactive”.

As a reminder, the EC50 is the concentration giving half of the maximal effect.
